For five molecules, IC50 results are on record in patent publication US7994321B2, “Substituted thieno[3,2-C]pyridine-7-carboxylic acid derivatives” (Hoffmann-La Roche Inc., priority 2006, dated 2011).

As usually defined, the IC50 is the midpoint of a concentration-inhibition curve.

Some results are limits rather than exact numbers.

T1 sequence (P09619 33-1106): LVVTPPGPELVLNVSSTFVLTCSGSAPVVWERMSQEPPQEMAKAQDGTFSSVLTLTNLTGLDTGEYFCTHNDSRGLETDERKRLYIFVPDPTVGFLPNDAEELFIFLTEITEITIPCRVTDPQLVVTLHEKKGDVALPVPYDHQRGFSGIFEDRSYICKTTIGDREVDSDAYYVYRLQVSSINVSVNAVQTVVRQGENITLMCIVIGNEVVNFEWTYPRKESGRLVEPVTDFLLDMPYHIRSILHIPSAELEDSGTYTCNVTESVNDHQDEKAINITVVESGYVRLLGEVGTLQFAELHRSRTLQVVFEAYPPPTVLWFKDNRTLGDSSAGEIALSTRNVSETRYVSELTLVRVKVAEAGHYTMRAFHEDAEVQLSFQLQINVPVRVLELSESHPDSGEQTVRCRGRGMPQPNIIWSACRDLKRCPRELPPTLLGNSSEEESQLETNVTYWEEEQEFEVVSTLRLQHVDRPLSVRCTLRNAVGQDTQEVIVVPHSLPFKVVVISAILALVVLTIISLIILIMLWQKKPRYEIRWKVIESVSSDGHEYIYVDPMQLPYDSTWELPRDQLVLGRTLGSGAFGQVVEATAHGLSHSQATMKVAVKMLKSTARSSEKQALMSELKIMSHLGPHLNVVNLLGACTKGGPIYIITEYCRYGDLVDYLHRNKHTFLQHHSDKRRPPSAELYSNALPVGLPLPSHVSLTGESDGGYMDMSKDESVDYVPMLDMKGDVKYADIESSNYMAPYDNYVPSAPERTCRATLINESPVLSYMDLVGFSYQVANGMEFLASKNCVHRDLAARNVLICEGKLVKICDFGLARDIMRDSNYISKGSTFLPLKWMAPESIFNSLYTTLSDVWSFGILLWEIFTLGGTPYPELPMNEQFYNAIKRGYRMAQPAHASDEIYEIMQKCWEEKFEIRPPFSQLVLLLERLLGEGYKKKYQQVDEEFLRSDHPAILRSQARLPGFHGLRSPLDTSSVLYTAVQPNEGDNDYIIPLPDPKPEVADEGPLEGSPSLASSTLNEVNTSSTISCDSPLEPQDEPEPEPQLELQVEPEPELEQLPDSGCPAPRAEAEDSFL

This assay concerns the target T1, Human recombinant EE-tagged PDGFRβ (Homo sapiens, UniProt P09619).
T1 construct: made in house; host or cells: Sf9 cells
Put plainly: PDGFRβ IMAP Kinase Assay (fluorescence polarization). Format: biochemical. The following applies: Kinase Enzyme Inhibition Assay; IMAP FP; FITC-labeled peptide substrate, ATP; 60 minutes at room temperature. From the text:
The assay uses IMAP Fluorescence polarization (FP) assay platform based on the high affinity binding of phosphate by immobilized metal coordination complexes. The substrate used in this assay is a Fitc labeled peptide: FITC-ALTSNQEYLDLSMPL. Upon substrate peptide's phosphorylation, the IMAP binding reagent complexes with phosphate groups on phosphopeptides generated in the PDGFRβ reaction, which causes a change in the rate of the molecular motion of the peptide, and results in an increase in the FP values.
• Enzyme: Human recombinant EE-tagged PDGFRβ, expressed in Sf9 cells (stock concentration 74.5 μM, from Protein Biochemistry, RDT); store at −80° C. • Substrate: Synthesized Fitc labeled peptide: FITC-ALTSNQEYLDLSMPL; store at −20° C. • Positive Control Staurosporine (1 mM stock in DMSO, Calbiochem) • Robotic System Workstation: Tomtec Quadra • Reader: Acquest 384.1356 (Molecular Devices); FP reading method • Assay Plate: BD Falcon 30-μL 384 assay plate (Cat # 353972), and Costar 384 black plate (Cat # 3710) Assay Procedures: (1) Prepare Assay Buffer-MOPS Buffer: 20 mM MOPS (Teknova) pH 7.1, 5 mM sodium acetate, 6.25 mM MgCl2, 0.5 mM EDTA, 1 mM DTT, 0.04 mM NaVO4, 0.02% BSA. (2) Prepare Substrate Mix containing peptide (1 μM) and ATP (48.6 μM) in assay buffer. Add 8 μL of Substrate Mix in BD Falcon assay plates. (3) Prepare PDGFRβ (0.2 μM) in assay buffer. (4) Dilute compounds and positive control in DMSO (40 fold, 4-pt in series). Add 18 μL/well of assay buffer into 384 polypropylene compound plates containing 2 μL of compound solution in each well, mix and transfer 4 μl/well of diluted solution into the BD Falcon assay plates containing 8 μL of Substrate Mix (step 2) in each well. Then add 4 μl/well of PDGFRβ solution (step 3) in all wells except blank wells. Add 4 μl/well of assay buffer into blank wells. (5) Incubate at room temperature for 60 minutes. (6) Prepare 1:400 IMAP bead mix following the instruction given in the IMAP Bead Binding System Kit (Molecular Devices), and add 30 μl/well of IMAP bead mix in Costar 384 black plates. (7) Transfer 2 μl/well of reaction solution (step 4-5) into Costar 384 black plates containing 30 μl/well of bead mix (step 6). (8) Incubate at RT for 2 hours. (9) Read FP values at 485 nm and 530 nm on Acquest.
Kinase Enzyme Inhibition Assay (IC50)
`O=C(Nc1cccc(OCc2csc3c(C(=O)NCCO)cncc23)c1)c1ccccc1` [Example 7, 3-(3-Benzoylamino-phenoxymethyl)-thieno[3,2-c]pyridine-7-carboxylic acid (2-hydroxy-ethyl)-amide]: the IC50 stood at 990 nM.

`CCOC(=O)c1cncc2c(COc3cccc(NC(=O)c4ccc(F)cc4)c3)csc12` [Example 8, 3-[3-(4-Fluoro-benzoylamino)-phenoxymethyl]-thieno[3,2-c]pyridine-7-carboxylic acid ethyl ester]: the IC50 was determined as 340 nM.

As to `CCOC(=O)c1cncc2c(COc3cccc(NC(=O)c4cccc(OC)c4)c3)csc12` [Example 13, 3-[3-(3-Methoxy-benzoylamino)-phenoxymethyl]-thieno[3,2-c]pyridine-7-carboxylic acid ethyl ester], the IC50 came out at 440 nM.

As to `O=C(Nc1cccc(OCc2csc3c(C(=O)NCCO)cncc23)c1)c1cccc(Cl)c1` [Example 16, 3-[3-(3-Chloro-benzoylamino)-phenoxymethyl]-thieno[3,2-c]pyridine-7-carboxylic acid (2-hydroxy-ethyl)-amide], the IC50 is 113 nM.

`COc1cccc(C(=O)Nc2ccc(C)c(OCc3csc4c(C(=O)NCCO)cncc34)c2)c1` [Example 31, 3-[5-(3-Methoxy-benzoylamino)-2-methyl-phenoxymethyl]-thieno[3,2-c]pyridine-7-carboxylic acid (2-hydroxy-ethyl)-amide]: the IC50 was less than 20000 nM.
